Results as given in article PMC6017630, “Identification of the NADPH Oxidase 4 Inhibiting Principle of Lycopus europaeus” (Molecules : A Journal of Synthetic Chemistry and Natural …, 2018).

Assays:
Nox5 = biological target: T1, Nox5 (Homo sapiens, UniProt Q96PH1); assay: chemiluminescence of ROS in ionomycin-stimulated Nox5-transfected HEK cells; assay type: cell-based
T1 sequence (Q96PH1 1-765): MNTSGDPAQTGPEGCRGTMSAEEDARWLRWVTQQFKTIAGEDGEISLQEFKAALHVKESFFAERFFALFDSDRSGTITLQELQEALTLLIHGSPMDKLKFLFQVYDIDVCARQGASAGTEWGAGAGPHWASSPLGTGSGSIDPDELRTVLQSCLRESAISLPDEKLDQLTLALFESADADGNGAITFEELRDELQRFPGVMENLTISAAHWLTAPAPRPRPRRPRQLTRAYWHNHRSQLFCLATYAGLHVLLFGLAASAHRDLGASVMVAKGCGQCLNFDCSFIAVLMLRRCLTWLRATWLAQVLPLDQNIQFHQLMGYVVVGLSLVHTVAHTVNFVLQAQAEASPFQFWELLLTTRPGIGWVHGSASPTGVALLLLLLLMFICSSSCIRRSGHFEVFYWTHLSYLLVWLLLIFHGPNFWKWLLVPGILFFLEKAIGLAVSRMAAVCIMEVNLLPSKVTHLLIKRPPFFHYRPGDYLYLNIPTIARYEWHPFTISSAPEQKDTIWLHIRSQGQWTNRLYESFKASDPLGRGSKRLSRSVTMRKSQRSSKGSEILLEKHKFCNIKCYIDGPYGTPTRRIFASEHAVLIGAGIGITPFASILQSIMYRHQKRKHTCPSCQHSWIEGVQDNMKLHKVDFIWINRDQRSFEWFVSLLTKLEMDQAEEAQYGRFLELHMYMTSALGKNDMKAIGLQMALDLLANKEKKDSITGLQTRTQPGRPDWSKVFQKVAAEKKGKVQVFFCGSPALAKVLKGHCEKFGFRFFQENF
From the text: chemiluminescence of ROS in ionomycin-stimulated Nox5-transfected HEK cells on Nox5 | stably transfected Nox5 overexpressing HEK cells were stimulated with ionomycin. This activity could be quenched completely by DPI

NADPH oxidase 4 (Nox4) = biological target: T2, NADPH oxidase 4 (Nox4) (Homo sapiens, UniProt Q9NPH5); assay: luminol chemiluminescence of ROS in HEK cells expressing Nox4, normalized to pcDNA cells; mitochondrial ROS scavenging counterscreen; assay type: cell-based
T2 sequence (Q9NPH5 1-578): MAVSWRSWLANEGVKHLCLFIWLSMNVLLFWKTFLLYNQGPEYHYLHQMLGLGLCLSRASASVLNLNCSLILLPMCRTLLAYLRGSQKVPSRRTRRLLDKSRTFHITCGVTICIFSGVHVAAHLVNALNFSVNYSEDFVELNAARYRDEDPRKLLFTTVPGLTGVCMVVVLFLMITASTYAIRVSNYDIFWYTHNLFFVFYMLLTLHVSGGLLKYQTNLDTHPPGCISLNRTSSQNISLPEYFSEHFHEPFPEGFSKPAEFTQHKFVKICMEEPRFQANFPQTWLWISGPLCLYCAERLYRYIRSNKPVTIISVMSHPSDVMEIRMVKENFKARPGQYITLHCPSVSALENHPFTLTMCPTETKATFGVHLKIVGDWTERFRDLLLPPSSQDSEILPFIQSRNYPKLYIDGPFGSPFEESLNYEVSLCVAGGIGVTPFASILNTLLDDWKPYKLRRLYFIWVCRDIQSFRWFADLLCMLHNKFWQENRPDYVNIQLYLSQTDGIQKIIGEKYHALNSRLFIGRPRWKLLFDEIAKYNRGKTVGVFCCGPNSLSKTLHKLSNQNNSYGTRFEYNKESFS

c1ccc2c(c1)[I+]c1ccccc1-2 [DPI, diphenyleneiodonium]
chemiluminescence of ROS in ionomycin-stimulated Nox5-transfected HEK cells (Nox5): stably transfected Nox5 overexpressing HEK cells were stimulated with ionomycin. This activity could be quenched completely by DPI

O=C(/C=C/c1ccc(O)c(O)c1)O[C@H](Cc1ccc(O)c(O)c1)C(=O)O [RA, rosmarinic acid]
IC50 (NADPH oxidase 4 (Nox4)): 1000 nM
